From publication PMC6009906, “A new nitrobenzoxadiazole-based GSTP1-1 inhibitor with a previously unheard of mechanism of action and high stability” (Journal of Enzyme Inhibition and Medicinal Chemistry, 2017)

How the values were obtained:
[1] = biological target: T1, GSTP1-1 (glutathione transferase P1-1) (Homo sapiens, UniProt P09211); experiment: CDNB-GSH conjugation assay in buffer A, pH […] °C (partial, max […] inhibition; K iapp […] without Triton); also intrinsic protein fluorescence quenching with and without GSH; assay type: biochemical
T1 sequence (P09211 2-210): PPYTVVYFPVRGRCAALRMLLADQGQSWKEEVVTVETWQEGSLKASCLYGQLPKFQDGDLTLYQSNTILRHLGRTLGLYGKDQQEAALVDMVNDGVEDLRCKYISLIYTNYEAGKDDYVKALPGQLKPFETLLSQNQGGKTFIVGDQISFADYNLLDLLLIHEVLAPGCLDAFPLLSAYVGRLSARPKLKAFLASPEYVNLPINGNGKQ

[2] = biological target: T1, GSTP1-1 (glutathione transferase P1-1); experiment: CDNB-GSH conjugation assay in buffer B (no detergent), pH […] °C; assay type: biochemical

| Ki [1] [µM] | Ki [2] [µM] | Structure (SMILES) |
| --- | --- | --- |
| 3.9 | – | O=C(OCCCCCCSc1ccc([N+](=O)[O-])c2nonc12)c1ccccc1 [compound 2, 6-((7 nitrobenzo[c][1,2,5]oxadiazol-4-yl)thio)hexyl benzoate] |
| – | 0.6 | CC(=O)OCCCCCCSc1ccc([N+](=O)[O-])c2nonc12 [compound 3, MC2752] |
